Assay results from PubChem BioAssay AID1920066 (Derbyshire Lab, Chemistry Department, Duke University, 2024).

Test system: not listed separately
Test: competitive binding to P. falciparum Hsp90 – cell lysate, FLECS, GFP-tagged PfHsp90, E. coli lysate, confirmation (AID 1920066)
Conditions: liver stage Plasmodium parasite inhibition

EC50	Compound
0.24 µM	CC[C@@H](C)Nc1cc(C(=O)NC2CC3CCC(C2)N3c2ccc(C(=O)C3CC3)cn2)c(C)cc1C(N)=O (some centres undefined)
> 10 µM	Cn1cc(S(=O)(=O)N2CCN(C(=O)c3ccc(F)cc3)CC2)cc1C(N)=O

The remaining lines, values behind:

Compound	EC50
Cc1ccc(C(C)C)c(OCC(=O)Nc2cccc3cnccc23)c1	> 30 µM
CS(=O)(=O)c1cccc(C(=O)Nc2nc3ccccc3nc2N2CCCC2)c1	> 30 µM
CCOC(=O)NCc1ccc(-n2c(-c3cc(C(C)C)c(O)cc3O)n[nH]c2=S)cc1	1.5 µM
NC(=O)c1ccc(NC(=O)CN2CSCC2=O)cc1	> 30 µM
CN(CC(=O)N1CCCC1)c1ncnc2cc(Cl)ccc12	> 30 µM

Test system: Heat shock protein 90 (Plasmodium falciparum), GFP-tagged
Test: as above
Conditions: E. coli lysate PfHsp90-GFP ATP-resin elution, fluorescence; at 500 µM; stronger effect = higher value

relative binding (F/Fo)	Compound
3.44	CC[C@@H](C)Nc1cc(C(=O)NC2CC3CCC(C2)N3c2ccc(C(=O)C3CC3)cn2)c(C)cc1C(N)=O (some centres undefined)
2.06	Cn1cc(S(=O)(=O)N2CCN(C(=O)c3ccc(F)cc3)CC2)cc1C(N)=O

The next lines start with the compound.

Compound	relative binding (F/Fo)
Cc1ccc(C(C)C)c(OCC(=O)Nc2cccc3cnccc23)c1	2.15
CS(=O)(=O)c1cccc(C(=O)Nc2nc3ccccc3nc2N2CCCC2)c1	2.59
CCOC(=O)NCc1ccc(-n2c(-c3cc(C(C)C)c(O)cc3O)n[nH]c2=S)cc1	4.9
NC(=O)c1ccc(NC(=O)CN2CSCC2=O)cc1	2.54
CN(CC(=O)N1CCCC1)c1ncnc2cc(Cl)ccc12	2.06
